Experimental data reported in patent US20250382297A1, “INHIBITORS OF FGFR2 AND FGFR3 AND USES THEREOF” (Insilico Medicine IP Limited, priority 2022, published 2025).
pIC50: −log10 of the molar value. Like-named read-outs stand apart in the source and are kept apart here.

Key:
[1] = biological target: FGFR1 (Homo sapiens (Human), UniProt P11362); experiment: FGFR biochemical assay (LanthaScreen TR-FRET kinase assay), FGFR1
Method: (§1) Convert Ratio values to percent inhibition values (Percent inhibition=(max−sample Ratio)/(max−min)*100) where “min” means the Ratio of no enzyme control and “max” means the Ratio of DMSO control. • Data are analyzed and curve fitting is performed by XLFit Excel add-in version 5.4.0.8. The IC50 calculation equation is: Y=Bottom+(Top-Bottom)/(1+ (IC50/X)^HillSlope.

[2] = biological target: FGFR4 (Homo sapiens (Human), UniProt P22455); experiment: FGFR biochemical assay (LanthaScreen TR-FRET kinase assay), FGFR4
FGFR4, sequence (P22455 22-802): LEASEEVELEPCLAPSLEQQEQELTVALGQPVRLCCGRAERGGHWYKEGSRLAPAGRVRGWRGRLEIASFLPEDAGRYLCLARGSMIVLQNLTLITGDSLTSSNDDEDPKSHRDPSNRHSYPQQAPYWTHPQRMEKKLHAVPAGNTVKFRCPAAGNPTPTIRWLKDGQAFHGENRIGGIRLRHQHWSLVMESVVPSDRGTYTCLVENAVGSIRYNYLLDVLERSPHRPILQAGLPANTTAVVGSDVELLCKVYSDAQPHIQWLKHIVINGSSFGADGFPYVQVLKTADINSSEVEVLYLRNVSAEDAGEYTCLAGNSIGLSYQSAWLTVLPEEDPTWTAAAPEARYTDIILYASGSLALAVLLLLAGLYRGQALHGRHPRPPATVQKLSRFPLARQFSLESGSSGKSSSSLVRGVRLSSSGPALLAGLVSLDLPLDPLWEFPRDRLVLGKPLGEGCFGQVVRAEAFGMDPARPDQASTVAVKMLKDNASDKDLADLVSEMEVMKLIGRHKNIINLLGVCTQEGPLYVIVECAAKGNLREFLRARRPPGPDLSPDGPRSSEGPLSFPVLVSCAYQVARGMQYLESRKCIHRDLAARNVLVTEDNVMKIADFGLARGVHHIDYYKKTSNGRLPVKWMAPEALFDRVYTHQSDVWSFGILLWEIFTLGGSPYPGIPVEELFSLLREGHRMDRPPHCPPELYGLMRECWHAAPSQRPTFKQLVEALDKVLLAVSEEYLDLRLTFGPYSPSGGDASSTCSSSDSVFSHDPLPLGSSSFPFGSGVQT
Method: as §1

[3] = biological target: FGFR3 (Homo sapiens (Human), UniProt P22607); experiment: FGFR biochemical assay (LanthaScreen TR-FRET kinase assay), FGFR3
FGFR3, sequence (P22607 23-806): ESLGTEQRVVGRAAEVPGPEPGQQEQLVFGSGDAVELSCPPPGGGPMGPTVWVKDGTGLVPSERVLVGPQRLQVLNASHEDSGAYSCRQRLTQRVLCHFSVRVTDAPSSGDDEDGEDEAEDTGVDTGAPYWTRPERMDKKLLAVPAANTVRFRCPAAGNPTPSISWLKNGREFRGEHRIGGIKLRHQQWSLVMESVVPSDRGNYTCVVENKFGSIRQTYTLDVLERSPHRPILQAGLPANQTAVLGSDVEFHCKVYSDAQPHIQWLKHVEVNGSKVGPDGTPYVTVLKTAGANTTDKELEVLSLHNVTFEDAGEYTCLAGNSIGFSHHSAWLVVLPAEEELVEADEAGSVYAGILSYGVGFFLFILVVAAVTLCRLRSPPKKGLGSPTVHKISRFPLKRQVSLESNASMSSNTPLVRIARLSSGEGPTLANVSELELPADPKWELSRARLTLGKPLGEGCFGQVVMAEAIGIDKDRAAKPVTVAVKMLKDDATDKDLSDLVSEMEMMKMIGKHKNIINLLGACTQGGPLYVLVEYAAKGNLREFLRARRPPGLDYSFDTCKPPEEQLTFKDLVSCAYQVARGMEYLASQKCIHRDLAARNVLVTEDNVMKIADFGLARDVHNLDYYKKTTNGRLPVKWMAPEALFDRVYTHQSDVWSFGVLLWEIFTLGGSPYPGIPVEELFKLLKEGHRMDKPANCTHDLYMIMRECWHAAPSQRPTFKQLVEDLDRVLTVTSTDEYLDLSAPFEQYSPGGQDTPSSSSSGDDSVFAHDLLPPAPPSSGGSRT
Method: as §1

[4] = biological target: FGFR2 (Homo sapiens (Human), UniProt P21802); experiment: FGFR biochemical assay (LanthaScreen TR-FRET kinase assay), FGFR2
FGFR2, sequence (P21802 22-821): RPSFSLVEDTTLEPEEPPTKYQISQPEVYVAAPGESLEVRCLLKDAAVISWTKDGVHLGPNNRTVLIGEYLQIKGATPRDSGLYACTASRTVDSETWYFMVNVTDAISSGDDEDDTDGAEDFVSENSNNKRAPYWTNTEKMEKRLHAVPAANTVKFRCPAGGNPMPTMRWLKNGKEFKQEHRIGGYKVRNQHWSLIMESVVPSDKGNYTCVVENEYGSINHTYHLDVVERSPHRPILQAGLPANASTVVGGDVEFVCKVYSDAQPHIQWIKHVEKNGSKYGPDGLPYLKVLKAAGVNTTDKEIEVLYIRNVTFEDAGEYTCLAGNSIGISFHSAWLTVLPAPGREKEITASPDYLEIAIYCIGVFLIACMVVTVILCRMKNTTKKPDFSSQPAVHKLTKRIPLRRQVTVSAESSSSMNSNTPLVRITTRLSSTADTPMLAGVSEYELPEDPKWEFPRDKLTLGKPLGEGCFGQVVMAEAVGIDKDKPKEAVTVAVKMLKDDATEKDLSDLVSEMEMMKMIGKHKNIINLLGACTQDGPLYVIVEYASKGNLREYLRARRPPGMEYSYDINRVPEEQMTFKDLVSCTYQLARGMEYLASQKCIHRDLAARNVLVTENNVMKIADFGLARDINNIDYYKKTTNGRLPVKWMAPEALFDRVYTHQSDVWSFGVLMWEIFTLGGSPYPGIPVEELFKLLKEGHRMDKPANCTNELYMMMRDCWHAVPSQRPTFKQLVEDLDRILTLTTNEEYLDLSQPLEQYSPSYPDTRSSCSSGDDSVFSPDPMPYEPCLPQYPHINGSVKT
Method: as §1

[5] = read-out: FGFR2 IC50, incubation with enzyme at room temperature for 10 minutes before substrate, ATP 22 μM, FGFR2 0.01 nM
[6] = read-out: FGFR1 IC50, incubation with enzyme at room temperature for 10 minutes before substrate, ATP 28 μM, FGFR1 0.01 nM
[7] = read-out: FGFR3 IC50, incubation with enzyme at room temperature for 10 minutes before substrate, ATP 35 μM, FGFR3 0.1 nM
[8] = read-out: FGFR3 IC50, * incubation at room temperature for 60 minutes before addition of substrate solution, ATP 35 μM, FGFR3 0.1 nM
[9] = read-out: FGFR2 IC50, * incubation at room temperature for 60 minutes before addition of substrate solution, ATP 22 μM, FGFR2 0.01 nM

FGFR1, sequence (P11362 22-822): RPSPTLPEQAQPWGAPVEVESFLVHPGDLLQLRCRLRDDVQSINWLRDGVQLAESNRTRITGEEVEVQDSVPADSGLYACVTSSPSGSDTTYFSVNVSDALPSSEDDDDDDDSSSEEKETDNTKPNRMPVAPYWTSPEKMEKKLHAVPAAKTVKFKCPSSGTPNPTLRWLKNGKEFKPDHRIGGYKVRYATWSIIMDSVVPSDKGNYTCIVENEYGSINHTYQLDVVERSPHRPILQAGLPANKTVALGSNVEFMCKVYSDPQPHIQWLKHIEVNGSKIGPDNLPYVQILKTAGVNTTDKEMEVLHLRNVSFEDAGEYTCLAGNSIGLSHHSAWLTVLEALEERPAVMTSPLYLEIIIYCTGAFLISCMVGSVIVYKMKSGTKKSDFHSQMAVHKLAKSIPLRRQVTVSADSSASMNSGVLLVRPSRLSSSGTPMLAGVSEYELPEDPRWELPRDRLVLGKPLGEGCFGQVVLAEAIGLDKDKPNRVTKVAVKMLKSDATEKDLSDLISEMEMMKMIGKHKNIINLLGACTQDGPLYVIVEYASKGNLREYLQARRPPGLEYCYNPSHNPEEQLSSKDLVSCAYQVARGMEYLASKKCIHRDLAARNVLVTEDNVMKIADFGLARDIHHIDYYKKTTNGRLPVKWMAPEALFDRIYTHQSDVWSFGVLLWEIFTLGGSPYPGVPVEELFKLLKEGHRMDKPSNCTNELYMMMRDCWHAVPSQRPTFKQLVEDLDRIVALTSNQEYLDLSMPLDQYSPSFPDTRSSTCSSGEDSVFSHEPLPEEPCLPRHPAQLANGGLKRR

C=CC(=O)Nc1ccc(-c2c(-c3ccc(Oc4cccc(C)n4)cc3)c(C(N)=O)c3cnc(CO)cn23)cc1 [Example 11, 6-(4-acrylamidophenyl)-3-(hydroxymethyl)-7-(4-((6-methylpyridin-2-yl)oxy)phenyl)pyrrolo[1,2-a]pyrazine-8-carboxamide]
pIC50 [1]: 6.00 to 7.00
pIC50 [2]: 6.00 to 7.00
pIC50 [3]: 7.00 to 8.00
pIC50 [4, 5]: > 8.00

C=CC(=O)Nc1ccc(-c2c(-c3ccc(Oc4cccc(C)n4)cc3)c(C(N)=O)c3cnc(C)cn23)cc1 [Example 7, 6-(4-acrylamidophenyl)-3-methyl-7-(4-((6-methylpyridin-2-yl)oxy)phenyl)pyrrolo[1,2-a]pyrazine-8-carboxamide]
pIC50 [1]: 6.00 to 7.00
pIC50 [2]: 6.00 to 7.00
pIC50 [3]: 7.00 to 8.00
pIC50 [4, 5]: > 8.00

C=CC(=O)N1CCc2cc(-c3c(-c4ccc(Oc5cccc(C)n5)cc4)c(C(N)=O)c4cnccn34)ccc21 [Example 14, 6-(1-acryloylindolin-5-yl)-7-(4-((6-methylpyridin-2-yl)oxy)phenyl)pyrrolo[1,2-a]pyrazine-8-carboxamide]
pIC50 [1, 6]: > 8.00
pIC50 [3, 7]: > 8.00
pIC50 [4, 5]: > 8.00

C=C(F)C(=O)Nc1ccc(-c2c(-c3ccc(Oc4nccc(C)n4)c(F)c3)c(C(N)=O)c3cc(-c4cnn(C)c4)ncn23)c(F)c1 [Example 91, 6-(3-fluoro-4-((4-methylpyrimidin-2-yl)oxy)phenyl)-7-(2-fluoro-4-(2-fluoroacrylamido)phenyl)-3-(1-methyl-1H-pyrazol-4-yl)pyrrolo[1,2-c]pyrimidine-5-carboxamide]
pIC50 [1]: 7.00 to 8.00
pIC50 [3, 8]: > 8.00
pIC50 [4, 9]: > 8.00

C=CC(=O)Nc1ccc(-c2c(-c3ccc(Oc4cccc(C)n4)cc3)c(C(N)=O)c3cnc(C4COC4)cn23)cc1 [Example 76, 6-(4-acrylamidophenyl)-7-(4-((6-methylpyridin-2-yl)oxy)phenyl)-3-(oxetan-3-yl)pyrrolo[1,2-a]pyrazine-8-carboxamide]
pIC50 [1]: 7.00 to 8.00
pIC50 [3, 7]: > 8.00
pIC50 [4, 5]: > 8.00

C=C(F)C(=O)Nc1ccc(-c2c(-c3ccc(Oc4nccc(C)n4)c(F)c3)c(C(N)=O)c3cncnn23)cc1 [Example 108, 6-(3-fluoro-4-((4-methylpyrimidin-2-yl)oxy)phenyl)-7-(4-(2-fluoroacrylamido)phenyl)pyrrolo[2,1-f][1,2,4]triazine-5-carboxamide]
pIC50 ([1]; read-out: FGFR1 IC50, * incubation at room temperature for 60 minutes before addition of substrate solution, ATP 28 μM, FGFR1 0.01 nM): < 6.00
pIC50 [3]: 6.00 to 7.00
pIC50 [4]: 7.00 to 8.00

C=C(F)C(=O)Nc1ccc(-c2c(-c3ccc(Oc4nccc(C)n4)c(F)c3)c(C(N)=O)c3ccc(C)nn23)cc1 [Example 93, 6-(3-fluoro-4-((4-methylpyrimidin-2-yl)oxy)phenyl)-7-(4-(2-fluoroacrylamido)phenyl)-2-methylpyrrolo[1,2-b]pyridazine-5-carboxamide]
pIC50 [1]: 6.00 to 7.00
pIC50 [3]: 7.00 to 8.00
pIC50 [4]: 7.00 to 8.00

C=CC(=O)Nc1ccc(-c2c(-c3ccc(C(=O)NCC4(F)COC4)cc3)c(C(N)=O)c3cnc(C)cn23)cc1 [Example 64, 6-(4-acrylamidophenyl)-7-(4-(((3-fluorooxetan-3-yl)methyl)carbamoyl)phenyl)-3-methylpyrrolo[1,2-a]pyrazine-8-carboxamide]
pIC50 [1]: 7.00 to 8.00
pIC50 [3, 7]: > 8.00
pIC50 [4, 5]: > 8.00

C=CC(=O)Nc1ccc(-c2c(-c3ccc(C(=O)N4CC5(CCC5)C4)cc3)c(C(N)=O)c3cnccn23)cc1 [Example 30, 7-(4-(2-azaspiro[3.3]heptane-2-carbonyl)phenyl)-6-(4-acrylamidophenyl)pyrrolo[1,2-a]pyrazine-8-carboxamide]
pIC50 [1]: 6.00 to 7.00
pIC50 [3]: 6.00 to 7.00
pIC50 [4]: 7.00 to 8.00

C=CC(=O)Nc1ccc(-c2c(-c3ccc(Oc4cccc(C)n4)cc3)c(C(N)=O)c3n2CCN(C)C3)cc1 [Example 13, 6-(4-acrylamidophenyl)-2-methyl-7-(4-((6-methylpyridin-2-yl)oxy)phenyl)-1,2,3,4-tetrahydropyrrolo[1,2-a]pyrazine-8-carboxamide]
pIC50 [1]: 6.00 to 7.00
pIC50 ([2]; read-out: FGFR4 IC50, incubation with enzyme at room temperature for 10 minutes before substrate, ATP 238 μM, FGFR4 1 nM): < 6.00
pIC50 [3]: 6.00 to 7.00
pIC50 [4]: 7.00 to 8.00

C=C(F)C(=O)Nc1ccc(-c2c(-c3ccc(Oc4nccc(C)n4)c(F)c3)c(C(N)=O)c3cc(C)cnn23)cc1 [Example 87, 6-(3-fluoro-4-((4-methylpyrimidin-2-yl)oxy)phenyl)-7-(4-(2-fluoroacrylamido)phenyl)-3-methylpyrrolo[1,2-b]pyridazine-5-carboxamide]
pIC50 [1]: 7.00 to 8.00
pIC50 [3]: 7.00 to 8.00
pIC50 [4, 9]: > 8.00

C=CC(=O)Nc1ccc(-c2c(-c3ccc(Oc4nc(C)cs4)cc3)c(C(N)=O)c3cnccn23)cc1 [Example 19, 6-(4-acrylamidophenyl)-7-(4-((4-methylthiazol-2-yl)oxy)phenyl)pyrrolo[1,2-a]pyrazine-8-carboxamide]
pIC50 [1]: 7.00 to 8.00
pIC50 [3]: 7.00 to 8.00
pIC50 [4, 5]: > 8.00

C=CC(=O)Nc1ccc(-c2c(-c3ccc(Oc4cccc(C)n4)cc3)c(C(N)=O)c3cncc(C)n23)cc1 [Example 5, 6-(4-acrylamidophenyl)-4-methyl-7-(4-((6-methylpyridin-2-yl)oxy)phenyl)pyrrolo[1,2-a]pyrazine-8-carboxamide]
pIC50 [1]: 6.00 to 7.00
pIC50 [2]: 6.00 to 7.00
pIC50 [3]: 7.00 to 8.00
pIC50 [4, 5]: > 8.00

C=CC(=O)Nc1ccc(-c2c(-c3ccc(Oc4cccc(C)n4)cc3)c(C(N)=O)c3cnc(OC)cn23)cc1 [Example 17, 6-(4-acrylamidophenyl)-3-methoxy-7-(4-((6-methylpyridin-2-yl)oxy)phenyl)pyrrolo[1,2-a]pyrazine-8-carboxamide]
pIC50 [1]: 7.00 to 8.00
pIC50 [3]: 7.00 to 8.00
pIC50 [4, 5]: > 8.00

C=C(F)C(=O)Nc1ccc(-c2c(-c3ccc(Oc4nccc(C)n4)cc3)c(C(N)=O)c3cnc(C(F)(F)F)cn23)cc1 [Example 56, 6-(4-(2-fluoroacrylamido)phenyl)-7-(4-((4-methylpyrimidin-2-yl)oxy)phenyl)-3-(trifluoromethyl)pyrrolo[1,2-a]pyrazine-8-carboxamide]
pIC50 [1]: 6.00 to 7.00
pIC50 [3]: 6.00 to 7.00
pIC50 [4]: 7.00 to 8.00

C=CC(=O)N1CC2(CC=C(c3c(-c4ccc(Oc5nccc(C)n5)cc4)c(C(N)=O)c4cnc(C)cn34)CC2)C1 [Example 70, 6-(2-acryloyl-2-azaspiro[3.5]non-6-en-7-yl)-3-methyl-7-(4-((4-methylpyrimidin-2-yl)oxy)phenyl)pyrrolo[1,2-a]pyrazine-8-carboxamide]
pIC50 [1]: 6.00 to 7.00
pIC50 [3]: 6.00 to 7.00
pIC50 [4]: 6.00 to 7.00

C=C(F)C(=O)Nc1ccc(-c2c(-c3ccc(Oc4nccc(C)n4)c(F)c3)c(C(N)=O)c3cc(-c4cnn(C)c4)ncn23)c(C)c1 [Example 92, 6-(3-fluoro-4-((4-methylpyrimidin-2-yl)oxy)phenyl)-7-(4-(2-fluoroacrylamido)-2-methylphenyl)-3-(1-methyl-1H-pyrazol-4-yl)pyrrolo[1,2-c]pyrimidine-5-carboxamide]
pIC50 [1]: 7.00 to 8.00
pIC50 [3, 8]: > 8.00
pIC50 [4, 9]: > 8.00

C=C(F)C(=O)Nc1ccc(-c2c(-c3cc(F)c(Oc4nccc(C)n4)c(F)c3)c(C(N)=O)c3cnc(C)cn23)cc1 [Example 48, 7-(3,5-difluoro-4-((4-methylpyrimidin-2-yl)oxy)phenyl)-6-(4-(2-fluoroacrylamido)phenyl)-3-methylpyrrolo[1,2-a]pyrazine-8-carboxamide]
pIC50 [1]: 6.00 to 7.00
pIC50 [3]: 7.00 to 8.00
pIC50 [4]: 7.00 to 8.00

C=C(F)C(=O)Nc1ccc(-c2c(-c3ccc(Oc4nccc(C)n4)c(F)c3)c(C(N)=O)c3ccc(C)nn23)c(C)c1 [Example 94, 6-(3-fluoro-4-((4-methylpyrimidin-2-yl)oxy)phenyl)-7-(4-(2-fluoroacrylamido)-2-methylphenyl)-2-methylpyrrolo[1,2-b]pyridazine-5-carboxamide]
pIC50 [1]: 7.00 to 8.00
pIC50 [3]: 7.00 to 8.00
pIC50 [4, 9]: > 8.00

C=CC(=O)Nc1ccc(-c2c(-c3ccc(Oc4ccccn4)cc3)c(C(N)=O)c3cnccn23)cc1 [Example 26, 6-(4-acrylamidophenyl)-7-(4-(pyridin-2-yloxy)phenyl)pyrrolo[1,2-a]pyrazine-8-carboxamide]
pIC50 [1]: 6.00 to 7.00
pIC50 [3]: 7.00 to 8.00
pIC50 [4, 5]: > 8.00

C=CC(=O)Nc1ccc(-c2c(-c3ccc(Oc4cccc(C)n4)cc3)c(C(N)=O)c3cnc(CN(C)C)cn23)cc1 [Example 29, 6-(4-acrylamidophenyl)-3-((dimethylamino)methyl)-7-(4-((6-methylpyridin-2-yl)oxy)phenyl)pyrrolo[1,2-a]pyrazine-8-carboxamide]
pIC50 [1, 6]: < 6.00
pIC50 [3]: 6.00 to 7.00
pIC50 [4]: 7.00 to 8.00

C=C(F)C(=O)Nc1ccc(-c2c(-c3ccc(Oc4nccc(C)n4)cc3)c(C(N)=O)c3cnc(CCO)cn23)cc1 [Example 80, 6-(4-(2-fluoroacrylamido)phenyl)-3-(2-hydroxyethyl)-7-(4-((4-methylpyrimidin-2-yl)oxy)phenyl)pyrrolo[1,2-a]pyrazine-8-carboxamide]
pIC50 [1]: 6.00 to 7.00
pIC50 [3]: 7.00 to 8.00
pIC50 [4, 9]: > 8.00
